# Measurements reported in patent US9708334B2, “Substituted 2,4,5,6-tetrahydropyrrolo[3,4-c]pyrazole and 4,5,6,7-tetrahydro-2H-pyrazolo[4,3-c]pyridine compounds as GlyT1 inhibitors” (DART NEUROSCIENCE (CAYMAN) LTD., priority 2014, dated 2017).
# Biological target: T1, GlyT1 (Homo sapiens, UniProt P48067)
# T1 construct: expressed in transfected cells
# T1 sequence (P48067 1-706): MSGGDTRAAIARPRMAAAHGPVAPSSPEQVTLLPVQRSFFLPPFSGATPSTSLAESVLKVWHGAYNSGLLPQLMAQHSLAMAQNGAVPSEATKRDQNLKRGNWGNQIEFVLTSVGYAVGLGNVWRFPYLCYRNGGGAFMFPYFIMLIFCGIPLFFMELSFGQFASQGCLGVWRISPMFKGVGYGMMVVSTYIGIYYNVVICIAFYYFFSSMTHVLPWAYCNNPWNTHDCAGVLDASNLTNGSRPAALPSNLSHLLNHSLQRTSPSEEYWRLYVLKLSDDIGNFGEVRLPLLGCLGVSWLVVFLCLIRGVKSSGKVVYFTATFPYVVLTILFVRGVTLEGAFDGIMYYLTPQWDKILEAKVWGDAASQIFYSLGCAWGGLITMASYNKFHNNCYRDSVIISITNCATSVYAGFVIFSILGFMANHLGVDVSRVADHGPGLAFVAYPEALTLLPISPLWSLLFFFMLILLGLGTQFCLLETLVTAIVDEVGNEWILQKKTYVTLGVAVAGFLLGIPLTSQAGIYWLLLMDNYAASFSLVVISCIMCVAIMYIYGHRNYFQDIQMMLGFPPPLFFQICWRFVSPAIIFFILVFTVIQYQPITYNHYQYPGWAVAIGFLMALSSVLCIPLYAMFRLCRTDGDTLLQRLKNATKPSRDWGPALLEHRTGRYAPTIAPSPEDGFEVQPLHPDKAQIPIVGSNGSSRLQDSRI
# Assay: Glycine Transporter 1 (GlyT1) uptake assay, scintillation proximity assay of [14C]-glycine uptake
# Format: cell-based
# Settings: SPA, four parameter logistic fit, read-out: GlyT1 (pIC50) (converted)
# How it was run: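 IC50 values derive from four-parameter logistic curves fitted to dose-response data. Uptake of [14C]-glycine measured in scintillation proximity format.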
row,IC50,SMILES
1,100 to 1000 nM,"Cc1cccc(-n2cc3c(n2)CN(C(=O)c2cc(C#N)ccc2O[C@@H](C)C(F)(F)F)C3)n1 [Example 344, 3-[2-(6-Methylpyridin-2-yl)-2H 4H 5H 6H-pyrrolo[3,4-c]pyrazole-5-carbonyl]-4-{[(2S)-1 1 1-trifluoropropan-2-yl]oxy}benzonitrile]"
2,< 100 nM,"CC(C)(C)COc1ccc(S(C)(=O)=O)cc1C(=O)N1Cc2cn(-c3cc(Cl)ccc3F)nc2C1 [Example 65, 2-(5-Chloro-2-fluorophenyl)-5-[2-(2 2-dimethylpropoxy)-5-methanesulfonylbenzoyl]-2H 4H 5H 6H-pyrrolo[3,4-c]pyrazole]"
3,< 100 nM,CCS(=O)(=O)c1ccc(-c2cccc(F)c2)c(C(=O)N2Cc3cn(-c4cncc(F)c4)nc3C2)c1 [Example 571]
4,< 100 nM,"COc1c(C#N)ccc(OC(C)C)c1C(=O)N1Cc2cn(-c3ccc(F)cn3)nc2C1 [Example 324, 3-[2-(5-Fluoropyridin-2-yl)-2H 4H 5H 6H-pyrrolo[3,4-c]pyrazole-5-carbonyl]-2-methoxy-4-(propan-2-yloxy)benzonitrile]"
5,100 to 1000 nM,"Cc1cccc(-n2cc3c(n2)CN(C(=O)c2cc(S(C)(=O)=O)ccc2OCC2(C)COC2)C3)c1F [Example 441, 2-(2-Fluoro-3-methylphenyl)-5-{5-methanesulfonyl-2-[(3-methyloxetan-3-yl)methoxy]benzoyl}-2H 4H 5H 6H-pyrrolo[3,4-c]pyrazole]"
6,< 100 nM,"COc1c(C#N)ccc(OCC(F)(F)F)c1C(=O)N1Cc2cn(-c3cncc(F)c3)nc2C1 [Example 311, 3-[2-(5-Fluoropyridin-3-yl)-2H 4H 5H 6H-pyrrolo[3,4-c]pyrazole-5-carbonyl]-2-methoxy-4-(2 2 2-trifluoroethoxy)benzonitrile]"
7,< 100 nM,"CC(C)COc1ccc(S(C)(=O)=O)cc1C(=O)N1Cc2cn(-c3cccc(C(F)(F)F)c3F)nc2C1 [Example 52, 2-[2-Fluoro-3-(trifluoromethyl)phenyl]-5-[5-methanesulfonyl-2-(2-methylpropoxy)benzoyl]-2H 4H 5H 6H-pyrrolo[3,4-c]pyrazole]"
8,< 100 nM,"C[C@H](Oc1ccc(S(C)(=O)=O)cc1C(=O)N1Cc2cn(CC3CCCC3)nc2C1)C(F)(F)F [Example 413, 2-(Cyclopentylmethyl)-5-(5-methanesulfonyl-2-{[(2S)-1 1 1-trifluoropropan-2-yl]oxy}benzoyl)-2H 4H 5H 6H-pyrrolo[3,4-c]pyrazole]"
9,100 to 1000 nM,"CC(C)Oc1cc(-n2cc3c(n2)CN(C(=O)c2cc(C#N)ccc2OC(C)C)C3)ccn1 [Example 373, 4-(Propan-2-yloxy)-3-{2-[2-(propan-2-yloxy)pyridin-4-yl]-2H 4H 5H 6H-pyrrolo[3,4-c]pyrazole-5-carbonyl}benzonitrile]"
10,100 to 1000 nM,"Cc1cccc(-n2cc3c(n2)CN(C(=O)c2c(OCC(F)(F)F)ccc(C#N)c2Cl)C3)n1 [Example 22, 2-Chloro-3-[2-(6-methylpyridin-2-yl)-2H 4H 5H 6H-pyrrolo[3,4-c]pyrazole-5-carbonyl]-4-(2 2 2-trifluoroethoxy)benzonitrile]"
11,100 to 1000 nM,"CC(Oc1ccc(C#N)c(Cl)c1C(=O)N1CCc2nn(-c3ccccn3)cc2C1)C(F)(F)F (centres unmarked) [Example 216, 2-Chloro-3-[2-(pyridin-2-yl)-2H 4H 5H 6H 7H-pyrazolo[4,3-c]pyridine-5-carbonyl]-4-[(1 1 1-trifluoropropan-2-yl)oxy]benzonitrile]"
12,100 to 1000 nM,"CC(C)(F)Cn1cc2c(n1)CN(C(=O)c1cc(S(C)(=O)=O)ccc1-c1cccc(F)c1)C2 [Example 434, 2-(2-Fluoro-2-methylpropyl)-5-[2-(3-fluorophenyl)-5-methanesulfonylbenzoyl]-2H 4H 5H 6H-pyrrolo[3,4-c]pyrazole]"
13,< 100 nM,COc1c(C#N)ccc(O[C@@H](C)C(F)(F)F)c1C(=O)N1Cc2cn(-c3ncccc3F)nc2C1 [Example 261]
14,1000 to 10000 nM,"COc1c(C#N)ccc(OC(C)C(F)(F)F)c1C(=O)N1Cc2cnn(-c3ccc(F)cc3)c2C(C)(C)C1 (centres unmarked) [Example 474, 3-[1-(4-Fluorophenyl)-7 7-dimethyl-1H 4H 5H 6H 7H-pyrazolo[4,3-c]pyridine-5-carbonyl]-2-methoxy-4-[(1 1 1-trifluoropropan-2-yl)oxy]benzonitrile]"
15,< 100 nM,"CC(C)(C)COc1ccc(S(C)(=O)=O)cc1C(=O)N1Cc2cn(-c3ccccc3)nc2C1 [Example 48, 5-[2-(2 2-Dimethylpropoxy)-5-methanesulfonylbenzoyl]-2-phenyl-2H 4H 5H 6H-pyrrolo[3,4-e]pyrazole]"
16,< 100 nM,"Cc1ccc(F)c(-n2cc3c(n2)CN(C(=O)c2cc(S(C)(=O)=O)ccc2OCC2CC2)C3)c1 [Example 136, 5-[2-(Cyclopropylmethoxy)-5-methanesulfonylbenzoyl]-2-(2-fluoro-5-methylphenyl)-2H 4H 5H 6H-pyrrolo[3,4-c]pyrazole]"
17,100 to 1000 nM,"COc1c(C#N)ccc(OC(C)C(F)(F)F)c1C(=O)N1CCc2c(c(C(F)(F)F)nn2-c2ccc(F)cc2)C1 (centres unmarked) [Example 577, 3-[1-(4-Fluorophenyl)-3-(trifluoromethyl)-1H 4H 5H 6H 7H-pyrazolo[4,3-c]pyridine-5-carbonyl]-2-methoxy-4-[(1 1 1-trifluoropropan-2-yl)oxy]benzonitrile]"
18,1000 to 10000 nM,"CC(Oc1ccc(S(C)(=O)=O)cc1C(=O)N1CCc2c(cnn2C)C1)C(F)(F)F (centres unmarked) [Example 161, 5-{5-Methanesulfonyl-2-[(1 1 1-trifluoropropan-2-yl)oxy]benzoyl}-1-methyl-1H 4H 5H 6H 7H-pyrazolo[4,3-c]pyridine]"
19,100 to 1000 nM,"COc1c(C#N)ccc(C2(F)CCOCC2)c1C(=O)N1Cc2cn(-c3ccc(F)cn3)nc2C1 [Example 259, 4-(4-Fluorooxan-4-yl)-3-[2-(5-fluoropyridin-2-yl)-2H 4H 5H 6H-pyrrolo[3,4-c]pyrazole-5-carbonyl]-2-methoxybenzonitrile]"
20,100 to 1000 nM,"CS(=O)(=O)c1ccc(-c2ccc(C(F)(F)F)nc2)c(C(=O)N2Cc3cn(-c4ccccc4F)nc3C2)c1 [Example 547, 5-{2-[2-(2-Fluorophenyl)-2H 4H 5H 6H-pyrrolo[3,4-c]pyrazole-5-carbonyl]-4-methanesulfonylphenyl}-2-(trifluoromethyl)pyridine]"
21,1000 to 10000 nM,"COc1c(C#N)ccc(OCC2(C(F)(F)F)CC2)c1C(=O)N1CCc2nn(-c3ccc(F)cc3)cc2C1 [Example 476, 3-[2-(4-Fluorophenyl)-2H 4H 5H 6H 7H-pyrazolo[4,3-c]pyridine-5-carbonyl]-2-methoxy-4-{[1-(trifluoromethyl)cyclopropyl]methoxy}benzonitrile]"
22,100 to 1000 nM,"C[C@H](Oc1ccc(C#N)c(Cl)c1C(=O)N1Cc2cnn(-c3cn(C)cn3)c2C1)C(F)(F)F [Example 294, 2-Chloro-3-[1-(1-methyl-1H-imidazol-4-yl)-1H 4H 5H 6H-pyrrolo[3,4-c]pyrazole-5-carbonyl]-4-{[(2S)-1 1 1-trifluoropropan-2-yl]oxy}benzonitrile]"
23,< 100 nM,"CC(Oc1ccc(C#N)c(Cl)c1C(=O)N1CCc2nn(-c3cncc(F)c3)cc2C1)C(F)(F)F (centres unmarked) [Example 153, 2-Chloro-3-[2-(5-fluoropyridin-3-yl)-2H 4H 5H 6H 7H-pyrazolo[4,3-c]pyridine-5-carbonyl]-4-[(1 1 1-trifluoropropan-2-yl)oxy]benzonitrile]"
24,1000 to 10000 nM,COc1c(C#N)ccc(C2(F)COC2)c1C(=O)N1CCc2nn(-c3ccccc3)cc2C1 [Example 487]
25,100 to 1000 nM,"CC1(COc2ccc(C#N)c(Cl)c2C(=O)N2CCc3nn(-c4ccc(F)cc4)cc3C2)CC1 [Example 508, 2-Chloro-3-[2-(4-fluorophenyl)-2H 4H 5H 6H 7H-pyrazolo[4,3-c]pyridine-5-carbonyl]-4-[(1-methylcyclopropyl)methoxy]benzonitrile]"
26,< 100 nM,"COc1c(C#N)ccc(OC(C)C)c1C(=O)N1Cc2cn(-c3ccc(F)cc3)nc2C1 [Example 515, 3-[2-(4-Fluorophenyl)-2H 4H 5H 6H-pyrrolo[3,4-c]pyrazole-5-carbonyl]-2-methoxy-4-(propan-2-yloxy)benzonitrile]"
27,< 100 nM,"C[C@H](Oc1ccc(S(C)(=O)=O)cc1C(=O)N1Cc2cnn(-c3cccc4nccn34)c2C1)C(F)(F)F [Example 446, 1-{Imidazo[1 2-a]pyridin-5-yl}-5-(5-methanesulfonyl-2-{[(2S)-1 1 1-trifluoropropan-2-yl]oxy}benzoyl)-1H 4H 5H 6H-pyrrolo[3,4-c]pyrazole]"
28,< 100 nM,"C[C@H](Oc1ccc(S(C)(=O)=O)cc1C(=O)N1Cc2cn(CC3CC3(F)F)nc2C1)C(F)(F)F (stereo partly drawn) [Example 455, 2-[(2 2-Difluorocyclopropyl)methyl]-5-(5-methanesulfonyl-2-{[(2S)-1 1 1-trifluoropropan-2-yl]oxy}benzoyl)-2H 4H 5H 6H-pyrrolo[3,4-c]pyrazole]"
29,1000 to 10000 nM,"CS(=O)(=O)c1ccc(N2CCCCC2)c(C(=O)N2CCc3c(c(C(F)(F)F)nn3-c3ccccc3)C2)c1 [Example 165, 1-{4-Methanesulfonyl-2-[1-phenyl-3-(trifluoromethyl)-1H 4H 5H 6H 7H-pyrazolo[4,3-c]pyridine-5-carbonyl]phenyl}piperidine]"
